For data set [1], the system named is Hs578T. The data set can be described thus: Cell vitality assay (ATP assay, CellTiter-Glo). It counts as cell-based. The note with it: Homo sapiens, Hs-578T; Hs578T, 72 h; Table IIa; read-out: IC50 ATP-Assay after 72 h Hs578T. The gist of the method: (§1)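 Luminescent ATP read-out of viable cells; IC50 = concentration at which ATP falls to 50% of DMSO control. Cells seeded at 1000/well, treated 72 h with seven concentrations from 0.195 to 12.5 μM.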
On the technique in general: ATP-based viability assays read luminescence as a measure of living cells.

The test system of another data set is SF126. Description: Cell vitality assay (ATP assay, CellTiter-Glo). The data set is classed as cell-based. The following applies: Homo sapiens, SF-126; SF126, 72 h; Table IIa; read-out: IC50 ATP-Assay after 72 h SF126. A digest of the protocol: as §1
The next data set has as its system U118. The data set can be described thus: Cell vitality assay (ATP assay, CellTiter-Glo). It counts as cell-based. The following applies: U118, 72 h; Table IIa; read-out: IC50 ATP-Assay after 72 h U118. A digest of the protocol: as §1
A further data set deals with indicated cell line. Description: Wound healing migration assay (Table IV). The data set is classed as cell-based. The note with it: compounds at 12.5, 6.25, 3.125 μM, 48 h-72 h. A digest of the protocol:
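Compound exposure at 12.5, 6.25 and 3.125 μM, with DMSO control, on scratch-wounded monolayers (150000 cells/24 well, overnight). Wound closure imaged by microscopy, fixed with crystal violet after 48 h or 72 h depending on cell line; IC50 is the concentration giving 50% wound size between t0 and t48/t72.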

Data set [2] deals with Hs578T. Description: Matrigel outgrowth assay/branching assay. It counts as cell-based. The note with it: Homo sapiens, Hs-578T; HS578T cell line; Table Ib; read-out: Total branching inhibition in Matrigel HS578T. A digest of the protocol:
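Matrigel 3 mg/ml, polymerized 1 h 37° C; 5000 cells/well + cmpd 3.125/1.56/0.78 μM or DMSO. Imaged 48/72/96 h, 5× objective. Positive = total branching block.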

A further data set deals with viable cells in culture. The data set can be described thus: Cell viability assay at 10 μM (CellTiter-Glo, Table VII).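 Also: graded A 0-20%; B 21-40%; C 41-60%; D over 60% viable cells relative to DMSO control.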 The data set is classed as cell-based. The note with it: compound 10 μM, 72 h. A digest of the protocol:
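Cells were seeded at 1000 cells/well in 96-well plates in 100 μl culture medium and incubated for 72 h with 10 μM compound or a DMSO control. ATP content, which reflects metabolically active and therefore viable cells, was then determined by CellTiter-Glo luminescence (Promega) per the manufacturer's instructions and expressed relative to the DMSO control.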

The mark [3] stands for this setting: Homo sapiens, C8161 cells, read-out: IC50 Wound healing Assay C8161.
Where [4] appears, read: SF763 cells, read-out: IC50 Wound healing Assay SF763.
The mark [5] stands for this setting: Homo sapiens, HCT-116, HCT116 def, read-out: percentage (%) of viable cells HCT 116def.
Setting [6] is: Homo sapiens, HCT-116, HCT116 wt, read-out: percentage (%) of viable cells HCT 116wt.
The mark [7] stands for this setting: Homo sapiens, HT-29, HT29, read-out: percentage (%) of viable cells HT29.
Setting [8] is: Homo sapiens, NCI-H358, H358, read-out: percentage (%) of viable cells H358.
Where [9] appears, read: Homo sapiens, NCI-H1650, H1650, read-out: percentage (%) of viable cells H1650.
Where [10] appears, read: Homo sapiens, NCI-H1666, H1666, read-out: percentage (%) of viable cells H1666.
[11] abbreviates: Homo sapiens, NCI-H1975, H1975, read-out: percentage (%) of viable cells H1975.
[12] abbreviates: Homo sapiens, NCI-H1993, H1993, read-out: percentage (%) of viable cells H1993.
Setting [13] is: Homo sapiens, A549, read-out: percentage (%) of viable cells A549.
The mark [14] stands for this setting: Homo sapiens, HCC827, read-out: percentage (%) of viable cells HCC827.
Setting [15] is: Homo sapiens, SW480, read-out: percentage (%) of viable cells SW480.
Setting [16] is: RKO, read-out: percentage (%) of viable cells RKO.

Our source for the IC50, viability and melting point values is US9169241B2, “Quinolinyloxyphenylsulfonamides” (Max-Planck-Gesellschaft Zur Forderung der Wissenschaften …, priority 2009, dated 2015).

Like-named read-outs stand apart in the source and are kept apart here.

Regarding `COc1cc2c(Oc3ccc(NS(=O)(=O)c4cccc(C#N)c4)cc3F)ccnc2cc1OCCCN1CCCC(C)C1` (stereo not drawn) [Example 41, 3-Cyano-N-(3-fluoro-4-{6-methoxy-7-[3-(3-methyl-piperidin-1-yl)-propoxy]-quinolin-4-yloxy}-phenyl)-benzenesulfonamide], the melting point lay in the range of 125 to 127 °C. In the data set on Hs578T [1], the IC50 was ≤ 12.5 µM. Besides, the IC50 with SF126 fell in the range of 12.5 to 50 µM. Further, the IC50 in the data set on U118 is ≤ 12.5 µM. Further, the IC50 in the data set on indicated cell line (setting [3]) is 12.5 to 50 µM. Moreover, the IC50 in the data set with indicated cell line (setting [4]) is ≤ 12.5 µM. The IC50 with Hs578T [2] was ≤ 10 µM. In the data set with viable cells in culture (setting [5]), the viability at 10 µM is 0 to 20%. For the same compound, the viability at 10 µM in the data set on viable cells in culture (setting [6]) was in the range of 41 to 60%. Moreover, the viability at 10 µM in the data set with viable cells in culture (setting [7]) lay within 21 to 40%. Further, in the data set with viable cells in culture (setting [8]), the viability at 10 µM is 0 to 20%. In the data set on viable cells in culture (setting [9]), the viability at 10 µM lay in the range of 41 to 60%. Also, in the data set with viable cells in culture (setting [10]), the viability at 10 µM is 21 to 40%. Also, in the data set with viable cells in culture (setting [11]), the viability at 10 µM lay within 0 to 20%. For the same compound, in the data set on viable cells in culture (setting [12]), the viability at 10 µM lay within 21 to 40%. For the same compound, in the data set with viable cells in culture (setting [13]), the viability at 10 µM is 21 to 40%. The viability at 10 µM with viable cells in culture (setting [14]) fell in the range of 41 to 60%. The viability at 10 µM in the data set with viable cells in culture (setting [15]) is 0 to 20%. For the same compound, the viability at 10 µM in the data set on viable cells in culture (setting [16]) lay in the range of 0 to 20%.
`COc1cc2c(Oc3ccc(NS(=O)(=O)c4cccc(C)c4)cc3F)ccnc2cc1OCCCN1CCCC(C)C1` (stereo not drawn) [Example 70, N-(3-Fluoro-4-{6-methoxy-7-[3-(3-methyl-piperidin-1-yl)-propoxy]-quinolin-4-yloxy}-phenyl)-3-methyl-benzenesulfonamide] came in with a melting point of 168 to 170 °C. Further, in the data set on Hs578T [1], the IC50 lay within 12.5 to 50 µM. Further, the IC50 with SF126 is ≤ 12.5 µM. The IC50 in the data set with U118 is ≤ 12.5 µM. In addition, the IC50 with indicated cell line (setting [3]) was 12.5 to 50 µM. Also, in the data set with indicated cell line (setting [4]), the IC50 was ≤ 12.5 µM. Moreover, the IC50 in the data set on Hs578T [2] was ≤ 10 µM. Moreover, the viability at 10 µM with viable cells in culture (setting [5]) lay within 21 to 40%. Moreover, the viability at 10 µM in the data set on viable cells in culture (setting [6]) lay in the range of 41 to 60%. Moreover, in the data set with viable cells in culture (setting [7]), the viability at 10 µM is 21 to 40%. Also, in the data set with viable cells in culture (setting [8]), the viability at 10 µM was in the range of 21 to 40%. In addition, in the data set with viable cells in culture (setting [9]), the viability at 10 µM was 41 to 60%. Besides, in the data set with viable cells in culture (setting [10]), the viability at 10 µM was in the range of 21 to 40%. Besides, the viability at 10 µM with viable cells in culture (setting [11]) is 0 to 20%. For the same compound, in the data set on viable cells in culture (setting [12]), the viability at 10 µM was in the range of 0 to 20%. Also, the viability at 10 µM in the data set with viable cells in culture (setting [13]) was in the range of 21 to 40%. In addition, the viability at 10 µM in the data set with viable cells in culture (setting [14]) lay in the range of 21 to 40%. Also, in the data set with viable cells in culture (setting [15]), the viability at 10 µM lay within 21 to 40%. Besides, the viability at 10 µM in the data set on viable cells in culture (setting [16]) is 0 to 20%.
Consider `COc1cc2c(Oc3ccc(NS(=O)(=O)c4ccc(F)c(C#N)c4)cc3F)ccnc2cc1OCCCN1CCCC(C)C1` (stereo not drawn) [Example 72, 3-Cyano-4-fluoro-N-(3-fluoro-4-{6-methoxy-7-[3-(3-methyl-piperidin-1-yl)-propoxy]-quinolin-4-yloxy}-phenyl)-benzenesulfonamide], for which the melting point lay in the range of 125 to 127 °C. Moreover, in the data set with Hs578T [1], the IC50 was in the range of 12.5 to 50 µM. Moreover, the IC50 in the data set on SF126 lay within 12.5 to 50 µM. In addition, the IC50 with U118 was in the range of 12.5 to 50 µM. Besides, the IC50 in the data set on indicated cell line (setting [3]) is ≤ 12.5 µM. In addition, the IC50 in the data set with indicated cell line (setting [4]) is ≤ 12.5 µM. In addition, the IC50 with Hs578T [2] is ≤ 10 µM. For the same compound, the viability at 10 µM with viable cells in culture (setting [5]) lay within 41 to 60%. Besides, in the data set with viable cells in culture (setting [6]), the viability at 10 µM lay in the range of 21 to 40%. In addition, in the data set on viable cells in culture (setting [7]), the viability at 10 µM lay within 0 to 20%. Further, in the data set on viable cells in culture (setting [8]), the viability at 10 µM fell in the range of 21 to 40%. Also, the viability at 10 µM in the data set with viable cells in culture (setting [9]) was 41 to 60%. In addition, the viability at 10 µM in the data set on viable cells in culture (setting [10]) was in the range of 21 to 40%. In the data set with viable cells in culture (setting [11]), the viability at 10 µM lay in the range of 41 to 60%. The viability at 10 µM in the data set on viable cells in culture (setting [12]) lay in the range of 0 to 20%. Moreover, in the data set on viable cells in culture (setting [13]), the viability at 10 µM is > 60%. Moreover, in the data set on viable cells in culture (setting [14]), the viability at 10 µM was 41 to 60%. In the data set on viable cells in culture (setting [15]), the viability at 10 µM fell in the range of 0 to 20%. Moreover, the viability at 10 µM in the data set on viable cells in culture (setting [16]) was 0 to 20%.

What is called melting point is the temperature, or range, at which the solid turns liquid.
